# Measurements: publication PMC3132048, “Treatment of experimental adjuvant arthritis with a novel folate receptor-targeted folic acid-aminopterin conjugate” (Arthritis Research & Therapy, 2011)
# Marks after values point to notes of the source that are not given here.
# Columns and labels:
# [1] = molecular target: T1, FRα (FRα-expressing KB cells) (Homo sapiens, UniProt P15328); experiment: Relative affinity assay: displacement of [3H]FA from KB cells; format: binding; conditions: 37°C, competitor of [3H]FA, inverse molar ratio to displace 50%
# T1 construct: both KB cells and CHO-FRβ cells were used as the sources of FR; endogenous in cells; host or cells: KB cells
# Protocol: (§1) The relative affinities of EC0746, AMT, and MTX were determined according to a previously established method except that both KB cells and CHO-FRβ cells were used as the sources of FR [33]. KB cells are a human cancer cell line known for elevated expression of FRα. CHO-FRβ cells were obtained from Manohar Ratnam, Department of Biochemistry and Cancer Biology, The University of Toledo (Toledo, OH, USA). This cell line was originally generated by stable integration and amplification of a human FRβ cDNA expression construct in CHO-K1 cells.
# [2] = molecular target: T2, human FRβ (CHO-FRβ cells) (Homo sapiens, UniProt P14207); experiment: Relative affinity assay: displacement of [3H]FA from CHO-FRβ cells; format: binding; conditions: 37°C, competitor of [3H]FA, inverse molar ratio to displace 50%
# T2 construct: host or cells: CHO-K1 cells
# Protocol: as §1
# [3] = system: RAW264.7 cells; format: cell-based, murine
# Protocol: RAW264.7 cells in 96-well plates (3.5 × 10^4 cells/well) were treated with 10-fold serial dilutions of EC0746 (≤1 μM) in FFRPMI medium without and with 100-fold molar excess of FA. After a 2-hour exposure, the drug-containing media were replaced and the cells were allowed to incubate further for 70 hours (referred in the text as a 70-hour chase). In comparison, the cells were also treated continuously with AMT for 72 hours. Four hours prior to the end of incubation, LPS was added to the treated cells at a final concentration of 100 ng/ml. Then 100 μl culture supernatants were collected for TNFα analysis by ELISA. The cell viability was assessed by adding XTT to the remaining media for an additional 4 hours following the manufacturer's instructions. To evaluation of a cytostatic effect, RAW264.7 cells seeded at 1 × 10^6 cells/well in six-well plates were subjected to 2-hour exposure and a 70-hour chase with 0, 0.1, 10, and 1000 nM EC0746 without and with excess FA. At the end of the incubation (no LPS added), the surviving cells (that is, still viable cells) were recovered and redistributed in equal numbers in fresh medium for an additional 72 hours. The cell proliferation was again assessed by the XTT assay. All results were expressed as the percentage absorbance (minus background) relative to the untreated control cells.
# [4] = system: rat TG-macs; experiment: Viability of thioglycollate-elicited peritoneal macrophages; format: cell-based; conditions: 72-hour incubation; no effect at concentrations as high as stated
# Protocol: Female Lewis rats (175 to 200 g) were purchased from Harlan Sprague Dawley (Indianapolis, IN, USA) and were allowed to acclimate for 1 week. To obtain peritoneal macrophages, rats were dosed intraperitoneally with an aged thioglycollate (TG) medium (20 ml/kg) and euthanized 3 days later. The peritoneal cavity of the animals was lavaged with 60 ml ice-cold phosphate-buffered saline to collect peritoneal exudate. The TG-elicited macrophages in the peritoneal fluids were obtained after a red cell lysing step and a 2-hour adherence in folate-free RPMI 1640 medium (Mediatech, Manassas, VA, USA) containing 1% heat-activated fetal calf serum and antibiotics. The purity of the resulting macrophage population (herein referred to as rat TG-macs) was determined to be ~90% pure based on CD11b/c expression (data not shown). […] Unless otherwise specified, all cells were maintained in the folate-free RPMI 1640 medium containing 10% heat-activated fetal calf serum and antibiotics (FFRPMI) under a 5% CO2 atmosphere.
# Unlike RAW264.7 cells, rat TG-macs display little proliferative activity ex vivo and therefore were used in our studies to represent inflammatory macrophages in a low proliferative state. […] LPS (5 μg/ml) and IFNγ (100 ng/ml) were then added to the treated cells 24 hours prior to the end of incubation to stimulate the release of cytokines/chemokines, which were then detected with a rat cytokine antibody array.
# [5] = system: adjuvant-induced arthritis; experiment: Rat adjuvant-induced arthritis (AIA) model; format: in vivo; conditions: for Inhibition in paw edema (%): paw weight day 24; for Body weight change (%): day 24 relative to day 10
# Protocol: The rats were then inoculated intradermally (at the base of tail) with 0.5 mg heat-killed M. butyricum (BD Diagnostic Systems) in 100 μl light mineral oil (Sigma-Aldrich, St Louis, MO, USA). […] For each study, two or three rats from the same colony were not induced for arthritis and were used as healthy controls.
# Unless noted otherwise, all drug treatments started on day 10 after arthritis induction and lasted for two consecutive weeks with biweekly (BIW, Mondays and Thursdays) or once-weekly (QW, Mondays) dosing regimens.
# EC0746 was given subcutaneously (s.c.) in a dosing range of 25 to 1,000 nmol/kg (QW or BIW); MTX was given s.c. or orally at 250 nmol/kg (BIW) or 1,650 nmol/kg (QW); and etanercept (10 mg/kg) was given s.c. once every 3 days for a 12-day span. The QW MTX dosing regimen was to mimic MTX administration in humans, and this particular dose of 1,650 nmol/kg per week (that is, 0.75 mg/kg per week) was reportedly active as an intraperitoneal agent in the AIA model. To distinguish the anti-inflammatory mechanisms of EC0746 and MTX in vivo, a therapeutically irrelevant folate-containing competitor (EC0923, molecular weight 672) was used in 500-fold molar excess to block the activities of EC0746 and MTX at 250 nmol/kg (BIW).
# Formalin-fixed hind paws were examined by a board-certified veterinary radiologist who had no knowledge of the study groups. Specific criteria were used to establish a numerical grade of severity for each radiographic change: increased soft tissue volume (0 to 4), narrowing or widening of joint spaces (0 to 5), subchondral erosion (0 to 3), periosteal reaction (0 to 4), osteolysis (0 to 4), subluxation (0 to 3), and degenerative joint changes (0 to 3). Scores are limited to the tarsus, and the maximum possible score per foot was 26 [39]. The histopathological analysis was also performed in a blind fashion by an independent contract laboratory (Bolder BioPATH Inc., Boulder, CO, USA). The arthritic ankles were scored on a scale of 0 to 5 for inflammation, bone resorption, pannus formation, and cartilage damage, with a maximal histology score of 20 per foot.
# [6] = preliminary study, 500 nmol/kg s.c. biweekly, low starting arthritis
# [7] = preliminary study, 500 nmol/kg s.c. biweekly, more established disease
# [8] = s.c., 25 nmol/kg biweekly from day 10
# [9] = s.c., 100 nmol/kg biweekly from day 10
# [10] = s.c., 250 nmol/kg biweekly from day 10
# [11] = s.c., 250 nmol/kg biweekly plus 500-fold excess EC0923
# [12] = s.c., 250 nmol/kg biweekly, alone
# [13] = s.c., 500 nmol/kg biweekly from day 10
# [14] = s.c., 1,000 nmol/kg once weekly
# T1 sequence (P15328 25-257): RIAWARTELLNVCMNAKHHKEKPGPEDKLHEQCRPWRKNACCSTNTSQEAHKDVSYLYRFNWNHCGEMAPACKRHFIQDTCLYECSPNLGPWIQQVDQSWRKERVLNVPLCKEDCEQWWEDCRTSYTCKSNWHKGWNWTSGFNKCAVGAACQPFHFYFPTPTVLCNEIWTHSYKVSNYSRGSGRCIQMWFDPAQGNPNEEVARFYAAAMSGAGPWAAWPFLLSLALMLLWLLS
# T2 sequence (P14207 17-255): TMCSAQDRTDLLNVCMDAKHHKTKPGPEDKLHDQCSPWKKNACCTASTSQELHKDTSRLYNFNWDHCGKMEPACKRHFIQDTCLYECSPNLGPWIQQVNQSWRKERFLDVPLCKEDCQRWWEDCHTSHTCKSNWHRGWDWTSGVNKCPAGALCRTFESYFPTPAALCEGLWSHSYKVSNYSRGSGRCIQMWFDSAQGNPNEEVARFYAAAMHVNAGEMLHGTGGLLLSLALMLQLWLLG
smiles,measurement,setting,value
Nc1nc(N)c2nc(CNc3ccc(C(=O)N[C@@H](CCC(=O)NNC(=O)OCCSSC[C@H](NC(=O)[C@H](CCC(=O)NC[C@H](O)[C@@H](O)[C@H](O)[C@H](O)CO)NC(=O)[C@H](CCC(=O)O)NC(=O)[C@H](CCC(=O)NC[C@H](O)[C@@H](O)[C@H](O)[C@H](O)CO)NC(=O)[C@H](CCC(=O)O)NC(=O)[C@H](CCC(=O)NC[C@H](O)[C@@H](O)[C@H](O)[C@H](O)CO)NC(=O)CC[C@H](NC(=O)c4ccc(NCc5cnc6nc(N)[nH]c(=O)c6n5)cc4)C(=O)O)C(=O)O)C(=O)O)cc3)cnc2n1 [EC0746],Relative affinity value (FA = 1),[1],0.50
same,Relative affinity value (FA = 1),[2],0.27
same,IC50,"[3]; 2-hour pulse, 70-hour chase, read-out: Relative 50% inhibitory concentration, inhibition of cell proliferation (XTT)",~300 pM
same,Antiproliferative effect competitive in presence of excess FA,[3]; 100-fold molar excess FA,100%
same,Proliferation of surviving cells redispersed into fresh medium,[3]; additional 72-hour incubation after 2-hour pulse plus 70-hour chase,could no longer divide
same,Maximum growth inhibition,"[3]; concentrations ≥1 nM, 2-hour pulse, 70-hour chase",~ 50%
same,Concentration affecting TG-macs viability,[4],> 10 µM
same,Improvement in paw edema (percentage increase in paw weight),[5]; [6],~ 10 fold
same,Improvement in splenomegaly (percentage increase in spleen weight),[5]; [6],threefold
same,Arthritis score maintained throughout study,"[5]; preliminary study, 500 nmol/kg s.c. biweekly, mean starting arthritis score ~0 on day 10, score max 16",~ 1
same,Maximum reduction in arthritic scores,"[5]; preliminary study, 500 nmol/kg s.c. biweekly, mean starting arthritis score ~2 (established disease)",~ 50%
same,Improvement in paw edema (percentage increase in paw weight),[5]; [7],~ 2.5 fold
same,Improvement in splenomegaly (percentage increase in spleen weight),[5]; [7],twofold
same,Splenomegaly (percentage increase in spleen weight relative to healthy rats),[5]; [8],73 ± 8^e %
same,Inhibition in paw edema (%),[5]; [8],0 ± 25^d %
same,Body weight change (%),"[5]; s.c., 25 nmol/kg biweekly",-17 ± 1%
same,Splenomegaly (percentage increase in spleen weight relative to healthy rats),[5]; [9],52 ± 13^e %
same,Inhibition in paw edema (%),[5]; [9],35 ± 11^d %
same,Body weight change (%),"[5]; s.c., 100 nmol/kg biweekly",-14 ± 1%
same,Animals with no lesions (histopathology of ankle),"[5]; s.c., 250 nmol/kg biweekly",three out of five
same,Decrease in summed histology scores,"[5]; s.c., 250 nmol/kg biweekly",94%
same,Reduction in dorsal to ventral paw thickness,"[5]; s.c., 250 nmol/kg biweekly",94%
same,Splenomegaly (percentage increase in spleen weight relative to healthy rats),[5]; [10],25 ± 6^e %
same,Inhibition in paw edema (%),[5]; [10],91 ± 4^d %
same,Decrease in inflammation score (histology),[5]; [11],24%
same,Decrease in summed histology scores,[5]; [11],~ 19%
same,Reduction in dorsal to ventral paw thickness,[5]; [11],22%
same,Anti-arthritic activity with co-administered EC0923,"[5]; s.c., 250 nmol/kg biweekly plus 500-fold molar excess EC0923 (125 μmol/kg), all clinical parameters",nearly completely blocked
same,Radiographic analysis of arthritic paws,"[5]; s.c., 250 nmol/kg biweekly plus EC0923 125 μmol/kg",significant joint erosions
same,"Anti-arthritic activity (arthritis score, body weight, paw and spleen weights)",[5]; [12],highly effective
same,Radiographic analysis of arthritic paws,[5]; [12],minimal radiographic changes
same,Body weight change (%),"[5]; s.c., 250 nmol/kg biweekly",-0.5 ± 3%
same,Improvement in splenomegaly,"[5]; s.c., 250 nmol/kg per dose biweekly, printed >3-fold to fourfold",> 3 fold
same,Splenomegaly (percentage increase in spleen weight relative to healthy rats),[5]; [13],37 ± 7%
same,Inhibition in paw edema (%),[5]; [13],91 ± 9%
same,Body weight change (%),"[5]; s.c., 500 nmol/kg biweekly",0.4 ± 4%
same,Loss of original body weight due to arthritis progression,[5]; [14],~ 7%
same,Splenomegaly (percentage increase in spleen weight relative to healthy rats),[5]; [14],39 ± 5%
same,Inhibition in paw edema (%),"[5]; s.c., 1,000 nmol/kg once weekly (days 10 and 17)",72 ± 12%
same,Body weight change (%),[5]; [14],-7 ± 3%
